# US10591485B2, “Peptide tags for fluorescent labelling of proteins” (UNIVERSITY OF OTTAWA, priority 2015, dated 2020)
# “Also recorded” adds a separate entry of the source. Where a SMILES comes first, the peptide text is derived from it.
# How the values were obtained:
# [1] = pH-rate profile of MBP-dC10 mutants with dansyl-dimaleimide fluorogen, pH 7.50-9.00; format: physicochemical; settings: from horizontal displacement of best fit lines of pH-rate profile, FIG. 8
# Text: A pH range between 7.50 and 9.00 was explored to determine the dependence of the second order rate constant on pH. Only several mutants from libraries II and III were chosen for this pH study: Triple mutants containing lysine and arginine (black line), triple mutants containing histidine and lysine or arginine (light grey line), double mutants (dark grey line) and parent dC10 (dashed line).
# Considering the relative reactivity of the members of all three mutant libraries, additional studies were undertaken to attempt to quantify the effect of positively charged residues on the acidity of the cysteine residue thiol groups. […]
# Libraries I, II and III were assayed using a plate reader: briefly, in a reaction scale of 200 μL, 50 μM MBP-dC10 (or variants) and 50 μM dansyl-dM10 1 were mixed in HEPES 50 mM pH 7.5 buffer in the presence of TCEP 1 mM. Fluorescence increase was followed at 28° C. long after completion of the reaction (2 hours) using the Synergy™ H4 Hybrid Multi-Mode Microplate Reader (BioTek, Winooski, Vt., United States) plate reader at 515 nm, upon excitation at 330 nm of the dansyl fluorophore of 1. Second order reaction constants were determined using the initial slope and the final plateau of each kinetic curve. […] Fluorogenic reactions were performed in a plate reader as described above, in duplicate.
# [2] = Kinetics of addition of fluorogen 1 to MBP-dC10 histidine mutants, Cary Eclipse fluorimeter, 20° C.; format: biochemical; settings: fluorogen 1, 20° C., FIG. 4
# Method: To start, we used fluorogen 1.
# Reactivity of each MBP-dC10 variant was assessed by determining the second order rate constant of the fluorogenic labelling reaction with a dansyl-dimaleimide fluorogenic molecule, referred to as dansyl-dM10 1 (FIG. 11). Dansyl-dM10 was synthesized as described (Caron, K. et al., Org. Biomol. Chem. 9: 185-197, 2011). Initial kinetic studies performed on MBP-dC10 histidine mutants S2H, R9H, A7H and S2H-A17H were done at the scale of 500 μL in the established conditions described below, using a Cary Eclipse Fluorimeter (Varian, Inc., Mississauga, Ontario, Canada) at 20° C.
# [3] = In vitro reactivity of dC10 and dC10* with fluorogen 3; format: biochemical; settings: fluorogen 3, 50 μM equimolar, 28° C., FIG. 13
# Method: (§1) Second order rate constant ratios are shown for fluorogen 3 (grey), and fluorogen 4 (black). Ratios were obtained by normalizing all rate constants to the rate constant of parent MBP-dC10. Absolute values of second order rate constants in M^−1min^−1 are shown for each fluorogen and dC10 or dC10*, and were obtained using equimolar concentration of 50 μM of fluorogen and test protein, at 28° C. Results were obtained at least in duplicate.
# (§2) To extend the results shown above with fluorogens 1 and 2, we tested whether the labelling of dC10* (dC10-A3KA16RA17K) with other coumarin fluorogens would also show a kinetic advantage compared to dC10.
# [4] = In vitro reactivity of dC10 and dC10* with fluorogen 4; format: biochemical; settings: fluorogen 4, 50 μM equimolar, 28° C., FIG. 13
# Method: as §1, §2
# [5] = Fluorogenic addition reaction kinetics of MBP-dC10 libraries I, II and III with dansyl-dM10 fluorogen 1, plate reader, 28° C.; format: biochemical; settings: for reactivity of single mutants A17X (second order rate constant), in words: fluorogen 1, 50 μM equimolar, pH 7.5, 28° C., FIGS. 6 and 7; for increase in reactivity towards a dimaleimide fluorogen, triple mutants: fluorogen 1, relative to parent dC10, FIG. 10
# Method: Library I with point mutants at position A17 is represented in dark grey, library II with double mutants A16-A17 is represented in light grey, and library III with triple mutants A3-A16-A17 is represented in black. The rate constant for parent MBP-dC10 is represented in white. All measurements were performed at least in duplicate. The reactivity of each single mutant of MBP-dC10 was evaluated through their reaction with dansyl-dM10 fluorogen 1 (Caron, K. et al., Org. Biomol. Chem., 9: 185-197, 2011), commonly used for test purposes. Equimolar concentrations of 50 μM of fluorogen 1 and MBP-dC10 variant were used in pH 7.5 buffer HEPES 50 mM, supplemented with 1 mM of TCEP reducing agent to reduce disulfide bonds that could form during protein purification or storage. […] Progress curves of the fluorogenic addition reaction were acquired with a plate reader that allowed us to study a large number of samples at the same time. Since the dansyl fluorophore is sensitive to its environment, the reaction of each MBP-dC10 variant led to an end point of slightly different fluorescence intensity. We used a simple second order kinetic model A+B→C where reactants A and B were used in equimolar concentrations. The product C is the only fluorescent species in the milieu and its appearance can be directly followed by increase of fluorescence. Use of this model implies that the second thiol addition is extremely fast due to its intramolecular character, and that the second order kinetic constant k2 depends exclusively on the first thiol addition. This reasonable approximation allowed us to evaluate very simply the overall dC10 reactivity modulated by the presence of stabilizing residues in the proximity of cysteines C6 and C13. Reactivity of each MBP-dC10 variant was assessed by determining the second order rate constant of the fluorogenic labelling reaction with a dansyl-dimaleimide fluorogenic molecule, referred to as dansyl-dM10 1 (FIG. 11). […] Biomol. Chem. 9: 185-197, 2011). Initial kinetic studies performed on MBP-dC10 histidine mutants S2H, R9H, A7H and S2H-A17H were done at the scale of 500 μL in the established conditions described below, using a Cary Eclipse Fluorimeter (Varian, Inc., Mississauga, Ontario, Canada) at 20° C. […] Libraries I, II and III were assayed using a plate reader: briefly, in a reaction scale of 200 μL, 50 μM MBP-dC10 (or variants) and 50 μM dansyl-dM10 1 were mixed in HEPES 50 mM pH 7.5 buffer in the presence of TCEP 1 mM. Fluorescence increase was followed at 28° C. long after completion of the reaction (2 hours) using the Synergy™ H4 Hybrid Multi-Mode Microplate Reader (BioTek, Winooski, Vt., United States) plate reader at 515 nm, upon excitation at 330 nm of the dansyl fluorophore of 1. Second order reaction constants were determined using the initial slope and the final plateau of each kinetic curve. All reactions were performed in duplicate to quadruplicate. For pH dependent kinetics, MBP-dC10 variants were dialysed into a buffer of desired pH, containing 50 mM of buffering salt (pH 7.50-8.00: HEPES; pH 8.25-8.75: Tris-HCl; pH 9.00: CHES) and 1 mM TCEP, overnight at 4° C., with gentle stirring. Fluorogenic reactions were performed in a plate reader as described above, in duplicate.
molecule,measurement,setting,value
CC(C)C[C@H](N)C(=O)N[C@@H](CO)C(=O)N[C@@H](CCCCN)C(=O)N[C@@H](C)C(=O)N[C@@H](CCC(=O)O)C(=O)N[C@@H](CS)C(=O)N[C@@H](C)C(=O)N[C@@H](C)C(=O)N[C@@H](CCCNC(=N)N)C(=O)N[C@@H](CCC(=O)O)C(=O)N[C@@H](C)C(=O)N[C@@H](C)C(=O)N[C@@H](CS)C(=O)N[C@@H](CCCNC(=N)N)C(=O)N[C@@H](CCC(=O)O)C(=O)N[C@@H](CCCNC(=N)N)C(=O)N[C@@H](CCCCN)C(=O)N[C@@H](C)C(=O)N[C@@H](CCCNC(=N)N)C(=O)N[C@@H](C)C(=O)NCC(=O)NCC(=O)N[C@@H](CCCCN)C(=O)O [dC10-A3KA16RA17K] (H-LSKAECAAREAACRERKARAGGK-OH; N-terminus and C-terminus assumed),pKa lower than that of the parent dC10 sequence,[1],0.70 units
L1HAAECAAREAACREAAARAGGK23 (LHAAECAAREAACREAAARAGGK) [dC10-S2H],reactivity (second order kinetic constant) compared with parent dC10,[2],did not appear to be more reactive than dC10
L1HAAECAAREAACREAHARAGGK23 (LHAAECAAREAACREAHARAGGK) [dC10-S2HA17H],reactivity (second order kinetic constant) compared with parent dC10,[2],more reactive than the parent dC10
L1SAAECAAHEAACREAAARAGGK23 (LSAAECAAHEAACREAAARAGGK) [dC10-R9H],reactivity (second order kinetic constant) compared with parent dC10,[2],did not appear to be more reactive than dC10
"L1SAAECAAREAACREAAARAGGK23 (LSAAECAAREAACREAAARAGGK) [dC10, previously described parent dicysteine alpha-helical peptide tag]",rate enhancement compared to dC10,[3],4 fold
same,rate enhancement compared to dC10,[4],2 fold
L1SAAECAAREAACREAHARAGGK23 (LSAAECAAREAACREAHARAGGK) [dC10-A17H],"reactivity of single mutants A17X (second order rate constant), in words",[5],reacts faster than the parent dC10 peptide tag; also recorded: does not react as fast as the A17K mutant
L1SAAECAAREAACREAKARAGGK23 (LSAAECAAREAACREAKARAGGK) [dC10-A17K],"reactivity of single mutants A17X (second order rate constant), in words",[5],best dC10 single mutant
L1SAAECAAREAACREHKARAGGK23 (LSAAECAAREAACREHKARAGGK) [dC10-A16HA17K],reactivity compared among double mutants A16X-A17K,"[5]; fluorogen 1, FIG. 10",not as reactive as double mutants A16K-A17K and A16R-A17K
L1SAAECHAREAACREAAARAGGK23 (LSAAECHAREAACREAAARAGGK) [dC10-A7H],reactivity (second order kinetic constant) compared with parent dC10,[2],did not appear to be more reactive than dC10
L1SKAECAAREAACREKKARAGGK23 (LSKAECAAREAACREKKARAGGK) [dC10-A3KA16KA17K],"increase in reactivity towards a dimaleimide fluorogen, triple mutants",[5],~10 fold
L1SRAECAAREAACREKKARAGGK23 (LSRAECAAREAACREKKARAGGK) [dC10-A3RA16KA17K],"increase in reactivity towards a dimaleimide fluorogen, triple mutants",[5],~10 fold
L1SRAECAAREAACRERKARAGGK23 (LSRAECAAREAACRERKARAGGK) [dC10-A3RA16RA17K],"increase in reactivity towards a dimaleimide fluorogen, triple mutants",[5],~10 fold
